Source: PubChem BioAssay (NCI)
Where “and” joins values, the source holds several entries; their conditions need not be identical. Equal values may be shown once.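 Values below derive from 48-hour exposures of cells grown in 96-well plates, with endpoints linearly interpolated between the two concentrations bracketing the appropriate inhibition level. GI50 = concentration required for 50% inhibition of growth. At the TGI there is no net growth.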 *1 amine or outer side, *2 acyl side, *3 side chain or, on linkers, in order; H or OH if unused. Where a SMILES comes first, the peptide text is derived from it. Bridges are numbered along the chain shown (N, C = ends). [ ]: non-standard residue; d: D form. The star is where a group is joined. Phe(3,5-F2) = N[C@@H](Cc1cc(F)cc(F)c1)C(=O)O; Pro(4R-Me) = C[C@H]1CN[C@H](C(=O)O)C1; aThr = C[C@H](O)[C@H](N)C(=O)O; Pip = O=C(O)[C@@H]1CCCCN1; X10 = Fc1cc(C2CC2)ccc1N*; CO = O=C([*:1])[*:2]

Tests used:
Assay in all cases: DTP human tumour cell line panel, 48 h
NCI-H522 lung = tested on: NCI-H522 lung
HS 578T breast = tested on: HS 578T breast
NCI-H460 lung = tested on: NCI-H460 lung
EKVX NSCLC = tested on: EKVX NSCLC
HCC-2998 colon = tested on: HCC-2998 colon
HOP-92 NSCLC = tested on: HOP-92 NSCLC
UACC-62 melanoma = tested on: UACC-62 melanoma
ACHN renal = tested on: ACHN renal
SF-295 CNS = tested on: SF-295 CNS
RPMI-8226 leukemia = tested on: RPMI-8226 leukemia

SMILES	TGI (NCI-H522 lung) [µM]	TGI (HS 578T breast) [µM]	TGI (NCI-H460 lung)	TGI (EKVX NSCLC)	TGI (HCC-2998 colon) [µM]	TGI (HOP-92 NSCLC)	TGI (UACC-62 melanoma)	TGI (ACHN renal)	TGI (SF-295 CNS) [µM]	GI50 (NCI-H522 lung)	GI50 (HS 578T breast)	GI50 (NCI-H460 lung)	GI50 (EKVX NSCLC) [µM]	GI50 (HCC-2998 colon)	GI50 (HOP-92 NSCLC)	GI50 (RPMI-8226 leukemia)	TGI (RPMI-8226 leukemia)	GI50 (UACC-62 melanoma)	GI50 (ACHN renal)	GI50 (SF-295 CNS) [nM]
O=C1CC(NC(=O)C(F)(F)F)c2c(Br)sc(N3CCNCC3)c21 (stereo not given)	> 100	> 100	> 100 µM	> 100 µM	> 100	> 100 µM	> 100 µM	> 100 µM	> 100											
Cc1ccc(CN2CCC(C(=O)Nc3ccc(-c4cc5ccccc5[nH]4)cc3)CC2)o1	> 100	> 100	> 100 µM	> 100 µM	> 100	> 100 µM	> 100 µM	> 100 µM	> 100	> 100000 nM	26300 nM	> 100000 nM	> 100	> 100000 nM	2710 nM	> 100000 nM	> 100 µM	45500 nM	> 100 µM	71000
C[C@@H]1C[C@H]2C(=O)O[C@@H](C)[C@H](NC(=O)[C@H](Cc3cc(F)cc(F)c3)NC(=O)Nc3ccc(C4CC4)cc3F)C(=O)N3CCC[C@H]3C(=O)N3CCCC[C@H]3C(=O)N[C@@H](C)C(=O)N2C1 ({X10-CO}-[Phe(3,5-F2)][aThr]P[Pip]A[Pro(4R-Me)]; ester 2-C)		3.94	4.55 µM	> 95.6 µM	1.78	4.76 µM	4.37 µM	8.12 µM	1.57	44.1 nM	40.9 nM	39.1 nM	0.0613	40.2 nM	45.2 nM	28.7 nM	0.878 µM	51.2 nM	0.0984 µM	43.8
NC(N)=NS(=O)(=O)c1ccc(Nc2c3ccccc3nc3c(C(=O)NCCO)cccc23)cc1						0.747 µM			60.7	16600 nM	21300 nM	9160 nM	25.7	92.8 nM		15000 nM		18100 nM	20 µM	20500
C[C@@H](Oc1cc(-n2cnc3ccc(CN4CCN(C)CC4)cc32)sc1C(N)=O)c1ccccc1C(F)(F)F	0.0369	2.53	12.5 µM and > 10 µM	21.6 µM and > 10 µM		0.947 µM and > 3.14 µM	16.7 µM and > 10 µM	15.8 µM and > 10 µM	> 10	< 10 nM and 5.31 nM	85.3 nM and 35 nM	< 15.7 nM and 22.4 nM		< 16.1 nM and 39.7 nM	34.2 nM and 191 nM	54.6 nM and 38.4 nM	13.6 µM and > 10 µM	32.6 nM and 38.2 nM	0.442 µM and 0.156 µM	48.6
O=[N+]([O-])c1ccc2c(c1)/C(=N/N=C1c3ccccc3Cc3ccccc31)c1cc([N+](=O)[O-])cc([N+](=O)[O-])c1-2	3.25	6.81	14.1 µM	12.3 µM	12.8	8.61 µM	6.46 µM	8.79 µM	3.7								> 100 µM			
Fc1[nH]nc2ccc([C@@H]3Nc4ccc5[nH]ncc5c4[C@H]4C5CCC(C5)[C@@H]34)cc12 (stereo not given in full)	9.27	13.6	7.26 µM	17.4 µM	12.8	14.2 µM	13.2 µM	13.6 µM	10.6	432 nM	1400 nM	804 nM	2.39	3140 nM	2000 nM	1420 nM	16.7 µM	849 nM	1.52 µM	414
OC1CSSC1Cn1cnc2c(Nc3ccc(OCc4cccc(F)c4)c(Cl)c3)ncnc21 (stereo not given)	4.15	15	0.667 µM	2.35 µM	3.49	23 µM	2.71 µM	5.67 µM	10.4	1120 nM	5280 nM	171 nM	0.603	952 nM	8970 nM	1060 nM	3.74 µM	971 nM	1.7 µM	3790
CCN(CC)N=Nc1c(C(N)=O)n[nH]c1C	> 100	> 100	> 100 µM	> 100 µM	> 100	87.8 µM	> 100 µM	> 100 µM	> 100								> 100 µM			
COc1cccc(C2c3cc4c(cc3OC(C)(N3CCCC3)C2C)OCO4)c1O (stereo not given)	6.01	5.59	37 µM	> 91.6 µM	25.6	71.4 µM	46.8 µM	> 83.1 µM	17.5								36.5 µM			
CCOC(=O)/C=C/CC(C)(C)CCOC(C)=O	> 10	> 10	> 10 µM		> 10	> 10 µM	> 10 µM	> 10 µM	> 10								> 10 µM			
COC(=O)/C=C1\S/C(=N\NC(=O)c2cc3ccc2/C=C\c2ccc(cc2)/C=C\3)N(c2ccccc2)C1=O	> 100	> 100	4.29 µM	4.23 µM	3.45	9.14 µM	4.21 µM	3.29 µM	4.19	4890 nM	3490 nM	2080 nM	1.91	1780 nM	1910 nM	2150 nM	5.69 µM	1960 nM	1.78 µM	2070
Cc1ccc(Cl)c2c(N=Nc3ccccc3[N+](=O)[O-])c(O)[nH]c12		70.2	> 100 µM	> 100 µM	> 100	> 100 µM	> 100 µM	> 100 µM	> 100								> 100 µM			
CN(C)c1ccc(/C=C\C2=[N+](C)c3ccccc3C2(C)C)cc1	> 67.4	8.68	7.16 µM	> 100 µM	12.9	> 22.8 µM	19.9 µM	> 36.7 µM	> 23.6	703 nM	305 nM	466 nM	1.29	1220 nM	890 nM	176 nM	> 53.5 µM	1490 nM	1.75 µM	994
Cc1cnc(NCCCN(C)C)c2c1[nH]c1ccc3cc(O)ccc3c12	0.624	2.22	1.25 µM	4.34 µM	1.98	1.31 µM	1.9 µM	4.89 µM	2.89								10.1 µM			
Fc1ccc(NC(=S)SCc2ccc3c(c2)OCO3)cc1F	35.4	88.7	> 100 µM	34.1 µM	71.5	88.9 µM	27.3 µM	64.4 µM	> 100											
COc1ccc(CC2c3cc4c(cc3CCN2C)OCO4)c(C=O)c1OC (stereo not given)	> 100	> 100	> 100 µM	> 100 µM	> 100	> 100 µM	> 100 µM	> 100 µM	> 100								> 100 µM			
Cc1nc2sccn2c1-c1csc(Nc2ccccc2Cl)n1	15.7	> 100	15.8 µM		45.3	7.08 µM	23.3 µM	62.3 µM	5.98	2080 nM	6920 nM	3190 nM		6250 nM	798 nM	1930 nM	19.1 µM	3050 nM	4.52 µM	1550
Cc1ccsc1C(=S)Nc1ccc(Cl)c(/C=N/OC(C)(C)C)c1	> 100	> 100	> 100 µM	> 100 µM	48.5	48.8 µM	> 100 µM	75.7 µM	> 100								> 100 µM			
O=C(Nc1ccc(-n2ccc3c(NC(=O)c4ccccc4)nccc32)cc1)c1ccc(Cl)c(C(F)(F)F)c1	9.59	20	1.2 µM	> 50 µM	10.4	> 42.2 µM	9.79 µM	15.4 µM	10	811 nM	4880 nM	44.2 nM	9.59	1600 nM	3420 nM	231 nM	5.54 µM	576 nM	0.487 µM	293
Nc1ccccc1C#C/C=C\C#Cc1ccccc1OC(F)(F)F	14	22	17.3 µM	58.7 µM	14.7	26.4 µM	21 µM	50.4 µM	11.4	3470 nM	4080 nM	3780 nM	9.16	2930 nM	9570 nM	3550 nM	18 µM	5940 nM	9.15 µM	3030
Nc1c(C(=O)c2cccc(CCS(N)(=O)=O)c2)cnn1-c1ccc(F)cc1	> 25	> 25	> 25 µM		> 25	> 25 µM	> 25 µM	> 25 µM	> 25	> 25000 nM	> 25000 nM	> 25000 nM		> 25000 nM	> 25000 nM	> 25000 nM	> 25 µM	> 25000 nM	> 25 µM	> 25000
Cc1ccc(NC(=O)Nc2ccc(-c3cccnc3)cc2N2CCC(CO)CC2)cc1	5.12	6.4	> 100 µM	> 100 µM	> 100	6.42 µM	6.18 µM	> 100 µM	> 100	1660 nM	1700 nM	3190 nM	3.42	3210 nM	2500 nM	3020 nM	14.3 µM	2300 nM	6.68 µM	2530
CCOC(=O)Cn1c(C(F)(F)F)nc2nc(Cl)c(Cl)nc21	58.2	87.2	> 100 µM	29.4 µM		70.3 µM	> 78.4 µM	> 67.9 µM	> 100								26.7 µM			
COC1/C=C/OC2(C)Oc3c(C)c(O)c4c(O)c(c(/C=N/Nc5ccc([N+](=O)[O-])cc5[N+](=O)[O-])c(O)c4c3C2=O)NC(=O)C(C)=C/C=C/C(C)C(O)C(C)C(O)C(C)C(OC(C)=O)C1C (stereo not given)		3.59	14.7 µM	> 50 µM	11.6	2.04 µM	5.08 µM	11.4 µM	20.1		970 nM	5220 nM	4.75	5050 nM	885 nM	1960 nM	14.5 µM	1370 nM	3.56 µM	5640
CC1CCc2nc[nH]c(=O)c21 (stereo not given)	> 100	> 100	> 100 µM		> 100	> 100 µM	> 100 µM	> 100 µM		> 100000 nM	> 100000 nM	> 100000 nM		> 100000 nM	> 100000 nM	> 100000 nM	> 100 µM	> 100000 nM	> 100 µM	
Cn1cc(C2=C(c3c4n(c5ccccc35)CCCCC4)C(=O)NC2=O)c2ccccc21	8.14	19.8	> 25 µM		> 25	> 25 µM	> 25 µM	> 25 µM	> 14.7	1020 nM	1700 nM	6510 nM		12400 nM	1480 nM	6880 nM	> 19.2 µM	1270 nM	6.05 µM	1310
CN1CCCCC1CCN1c2ccccc2Sc2ccc(Cl)cc21 (stereo not given)	7.37	8.79	8.44 µM		5.85	5.18 µM	5.61 µM	12.9 µM	13.5	2310 nM	2250 nM	2770 nM		2500 nM	1350 nM	3170 nM	9.29 µM	2160 nM	3.3 µM	3320
CC(C)=CCC\C(C)=C/C=C/C(C)=C\C=C\C(C)=C/C=C/C=C(C)\C=C\C=C(C)/C=C/C=C(/C)CCC=C(C)C		> 100		> 100 µM	> 100	> 100 µM	> 100 µM	> 100 µM	> 100											
COC(=O)CC[N+]1=CCC(c2ccccc2)(c2ccccc2)O1	> 100	> 100	> 100 µM	> 100 µM	> 100	> 100 µM	> 100 µM	> 100 µM	> 100											
